Assay [1] has as its system Haemophilus influenzae Holt. Put plainly: MIC, standard agar-dilution assay (Table II). Type of assay: cell-based. Particulars: ampicillin-sensitive strain. Also noted: unit not given here. The protocol:
(§1) The MIC's in Table II were determined by standard agar-dilution assays. The MIC's in Table III were obtained using a conventional broth-dilution microtiter test.

For assay [2], the system named is Haemophilus influenzae R252. Put plainly: MIC, standard agar-dilution assay (Table II). Conditions: Haemophilus influenzae R252, ampicillin-resistant strain. Also noted: unit not given here. Type of assay: cell-based. The protocol:
as §1

Assay [3] relates to Staphylococcus aureus S13E. The assay can be described thus: MIC, standard agar-dilution assay (Table II). The format is cell-based. Also noted: unit not given here. The protocol:
as §1

For assay [4], the system named is Staphylococcus aureus V41. The assay can be described thus: MIC, standard agar-dilution assay (Table II). Also noted: unit not given here. The format is cell-based. Conditions: Staphylococcus aureus V41, penicillin-resistant strain. As to the method:
as §1

Assay [5] has as its system Staphylococcus aureus X1.1. Put plainly: MIC, standard agar-dilution assay (Table II). Type of assay: cell-based. Also noted: unit not given here. The protocol: as §1
The test system of assay [6] is Staphylococcus aureus X400. Put plainly: MIC, standard agar-dilution assay (Table II). The format is cell-based. Also noted: unit not given here. Conditions: Staphylococcus aureus X400, methicillin-resistant strain. As to the method: as §1
In assay [7] the test system is Staphylococcus epidermidis EPI1. Put plainly: MIC, standard agar-dilution assay (Table II). Also noted: unit not given here. The format is cell-based. The protocol: as §1
In assay [8] the test system is Staphylococcus epidermidis EPI2. The assay can be described thus: MIC, standard agar-dilution assay (Table II). Type of assay: cell-based. Also noted: unit not given here. The protocol:
as §1

For assay [9], the system named is Streptococcus Group D 9960. The assay can be described thus: MIC, standard agar-dilution assay (Table II). Type of assay: cell-based. Also noted: unit not given here. As to the method:
as §1

The test system of assay [10] is Streptococcus Group D X66. Put plainly: MIC, standard agar-dilution assay (Table II). Type of assay: cell-based. Also noted: unit not given here. As to the method:
as §1

In assay [11] the test system is Streptococcus pneumoniae Park I. The assay can be described thus: MIC, standard agar-dilution assay (Table II). Type of assay: cell-based. Also noted: unit not given here. The protocol: as §1
In assay [12] the test system is Streptococcus pyogenes C203. The assay can be described thus: MIC, standard agar-dilution assay (Table II). Type of assay: cell-based. Also noted: unit not given here. As to the method:
as §1

Another assay has as its system Mycoplasma gallisepticum. The assay can be described thus: MIC, broth-dilution microtiter test (Table III). The format is cell-based. Also noted: unit not given here. As to the method: as §1
The next assay relates to Mycoplasma hyorhinis. Put plainly: MIC, broth-dilution microtiter test (Table III). The format is cell-based. Also noted: unit not given here. The protocol: as §1
The subject of the next assay is Mycoplasma synoviae. The assay can be described thus: MIC, broth-dilution microtiter test (Table III). Type of assay: cell-based. Also noted: unit not given here. As to the method:
as §1

For assay [13], the system named is Pasteurella multocida 17E. The assay can be described thus: MIC, broth-dilution microtiter test (Table III). Type of assay: cell-based. Also noted: unit not given here. Conditions: bovine isolate. As to the method:
as §1

Assay [14] relates to Pasteurella multocida 60A. The assay can be described thus: MIC, broth-dilution microtiter test (Table III). The format is cell-based. Also noted: unit not given here. Particulars: avian isolate. The protocol:
as §1

A further assay has as its system Staphylococcus aureus. Put plainly: MIC, broth-dilution microtiter test (Table III). Type of assay: cell-based. Also noted: unit not given here. The protocol: as §1
The subject of the next assay is Streptococcus sp. 80. Put plainly: MIC, broth-dilution microtiter test (Table III). The format is cell-based. Also noted: unit not given here. As to the method:
as §1

The next assay relates to Pasteurella multocida. Put plainly: Treatment of Pasteurella infections in chicks (Table V). The format is in vivo, one-day-old chicks. Particulars: Pasteurella multocida, sc, 4 h; 30 mg/kg by subcutaneous injection one and four hours post challenge; read-out: Deaths in Treated Chicks/Number Treated (converted). The protocol:
Certain OMT ester derivatives are active in vivo against Pasteurella infections. Table V summarizes the results of tests in which the ester derivatives were administered to one-day-old chicks at a dosage level of 30 mg/kg by subcutaneous injection one and four hours post challenge of the chicks with Pasteurella multocida (0.1 ml of a 10^-3 dilution of a 20-hour tryptose broth culture of avian P. multocida given subcutaneously). All nonmedicated infected chicks (ten in each control group) died within 24 hours of Pasteurella challenge.

In assay [15] the test system is Pasteurella haemolytica 22C. The assay can be described thus: MIC, broth-dilution microtiter test (Table III). The format is cell-based. Also noted: unit not given here. The protocol: as §1
Assay [16] relates to Pasteurella haemolytica 23C. Put plainly: MIC, broth-dilution microtiter test (Table III). Type of assay: cell-based. Also noted: unit not given here. As to the method:
as §1

In assay [17] the test system is Pasteurella haemolytica 41D. The assay can be described thus: MIC, broth-dilution microtiter test (Table III). Type of assay: cell-based. Also noted: unit not given here. As to the method: as §1
In assay [18] the test system is Pasteurella multocida 22A. The assay can be described thus: MIC, broth-dilution microtiter test (Table III). The format is cell-based. Also noted: unit not given here. As to the method:
as §1

Assay [19] relates to Pasteurella multocida 68C. Put plainly: MIC, broth-dilution microtiter test (Table III). Type of assay: cell-based. Also noted: unit not given here. As to the method: as §1

Where only a bound is given, the exact number is not on record here.

For `CCCCC(=O)OCC1C=C(C)C=CC(=O)C(C)CC(CC=O)C(OC2OC(C)C(O)C(N(C)C)C2O)C(C)C(O)CC(=O)OC1CC` (stereo not shown) [Compound 20], the “minimal inhibitory concentration (MIC)” value in assay [1] came out at 2; in [2] it was 2; in [3], 0.25; in assay [4], 0.25; in assay [5] it was 0.25; in assay [6], 0.5. Besides, the “minimal inhibitory concentration (MIC)” value in assay [7] is on record as 0.25; in assay [8], 0.25; in assay [9] it was 0.5; in assay [10], 0.5; in [11] it was 0.06; in assay [12], 0.25. The “minimal inhibitory concentration (MIC)” value is less than 0.05 in the assay with Mycoplasma gallisepticum; 3.12 in the assay on Mycoplasma hyorhinis; less than 0.05 in the assay on Mycoplasma synoviae; 1.56 in assay [13]; 3.12 in assay [14]; 0.39 in the assay on Staphylococcus aureus. For the same compound, in the assay with Streptococcus sp. 80, the “minimal inhibitory concentration (MIC)” value was 0.39. Also, the mortality at 30 mg/kg in the assay on Pasteurella multocida was 0%.

For the compound `CCC1OC(=O)CC(O)C(C)C(OC2OC(C)C(OC(C)=O)C(N(C)C)C2OC(C)=O)C(CC=O)CC(C)C(=O)C=CC(C)=CC1COC(=O)C(C)C` (stereo not shown) [Compound 17], the “minimal inhibitory concentration (MIC)” value in [1] came to 4; in assay [2] it was 4; in [3] it was 1; in assay [4], 1; in assay [5], 1; in [6], 1. The “minimal inhibitory concentration (MIC)” value is given as 0.5 in assay [7]; 1 in assay [8]; 1 in assay [9]; 1 in [10]; 0.25 in assay [11]; 1 in assay [12]. For the same compound, the “minimal inhibitory concentration (MIC)” value with Mycoplasma gallisepticum is on record as less than 0.05; with Mycoplasma hyorhinis, 0.39; in the assay on Mycoplasma synoviae, less than 0.05; in assay [13], 1.56; in assay [14], 3.12; in the assay on Staphylococcus aureus, 0.195. Moreover, the “minimal inhibitory concentration (MIC)” value with Streptococcus sp. 80 is less than 0.05. In addition, the mortality at 30 mg/kg in the assay with Pasteurella multocida is 100%.

Turning to `CCCCC(=O)OCC1C=C(C)C=CC(=O)C(C)CC(CC=O)C(OC2OC(C)C(OC(C)=O)C(N(C)C)C2OC(C)=O)C(C)C(O)CC(=O)OC1CC` (stereo not shown) [Compound 19], the “minimal inhibitory concentration (MIC)” value in assay [1] was 2; in assay [2], 2; in [3] it was 0.25; in [4], 0.25; in assay [5] it was 0.25; in assay [6], 0.5. In addition, the “minimal inhibitory concentration (MIC)” value in assay [7] was determined as 0.125; in [8] it was 0.125; in assay [9], 0.5; in assay [10], 0.5; in assay [11] it was 0.03; in assay [12] it was 0.25. Also, the “minimal inhibitory concentration (MIC)” value was less than 0.05 with Mycoplasma gallisepticum; 6.25 with Mycoplasma hyorhinis; less than 0.05 in the assay with Mycoplasma synoviae; 1.56 in [13]; 3.12 in assay [14]; 0.39 in the assay with Staphylococcus aureus. In the assay on Streptococcus sp. 80, the “minimal inhibitory concentration (MIC)” value is recorded as less than 0.05. For the same compound, the mortality at 30 mg/kg in the assay on Pasteurella multocida is 100%.

In the case of `CCCCCCCC(=O)OCC1C=C(C)C=CC(=O)C(C)CC(CC=O)C(OC2OC(C)C(OC(C)=O)C(N(C)C)C2OC(C)=O)C(C)C(O)CC(=O)OC1CC` (stereo not shown) [Compound 23], the “minimal inhibitory concentration (MIC)” value is 8 in assay [1]; 8 in assay [2]; 0.5 in [3]; 0.5 in [4]; 0.25 in assay [5]; 1 in [6]. The “minimal inhibitory concentration (MIC)” value in assay [7] is listed as 0.5; in assay [8] it was 0.5; in assay [9], 1; in assay [10] it was 1; in assay [11] it was 0.25; in assay [12], 0.5. Further, the “minimal inhibitory concentration (MIC)” value turned out to be 0.097 in the assay on Mycoplasma gallisepticum; 3.12 in the assay on Mycoplasma hyorhinis; 0.39 in the assay on Mycoplasma synoviae; 6.25 in assay [13]; 6.25 in [14]; 0.78 in the assay on Staphylococcus aureus. The “minimal inhibitory concentration (MIC)” value in the assay with Streptococcus sp. 80 came to 0.39. For the same compound, in the assay with Pasteurella multocida, the mortality at 30 mg/kg was 100%.

Take `CCCCCCCC(=O)OCC1C=C(C)C=CC(=O)C(C)CC(CC=O)C(OC2OC(C)C(O)C(N(C)C)C2O)C(C)C(O)CC(=O)OC1CC` (stereo not shown) [Compound 24]: the “minimal inhibitory concentration (MIC)” value stood at 4 in assay [1]; 4 in assay [2]; 0.25 in assay [3]; 0.5 in assay [4]; 0.25 in assay [5]; 0.5 in assay [6]. Besides, the “minimal inhibitory concentration (MIC)” value in assay [7] amounted to 0.25; in assay [8], 0.25; in [9], 0.5; in [10], 0.5; in [11], 0.125; in [12], 0.5. The “minimal inhibitory concentration (MIC)” value in the assay on Mycoplasma gallisepticum is recorded as less than 0.05; in the assay on Mycoplasma hyorhinis, 6.25; in the assay with Mycoplasma synoviae, 0.097; in [13] it was 6.25; in assay [14], 6.25; in the assay with Staphylococcus aureus, 0.78. Also, in the assay with Streptococcus sp. 80, the “minimal inhibitory concentration (MIC)” value is 0.39. For the same compound, the mortality at 30 mg/kg in the assay on Pasteurella multocida is 10%.

Take `CCC1OC(=O)CC(O)C(C)C(OC2OC(C)C(OC(C)=O)C(N(C)C)C2OC(C)=O)C(CC=O)CC(C)C(=O)C=CC(C)=CC1COS(C)(=O)=O` (stereo not shown) [Compound 45]: the “minimal inhibitory concentration (MIC)” value in assay [3] is listed as 1; in assay [4], 2; in assay [5], 1; in assay [6], 2; in [7] it was 0.5; in [8], 2. Besides, the “minimal inhibitory concentration (MIC)” value was determined as 1 in assay [9]; 1 in assay [10]; 0.39 in the assay on Mycoplasma gallisepticum; 3.12 in the assay on Mycoplasma hyorhinis; 0.39 in the assay with Mycoplasma synoviae; 6.25 in assay [15]. In addition, the “minimal inhibitory concentration (MIC)” value in assay [16] was found to be 3.12; in assay [17], 6.25; in [13], 3.12; in assay [18], 3.12; in assay [14], 1.56; in [19], 1.56. Moreover, the “minimal inhibitory concentration (MIC)” value with Staphylococcus aureus is 0.78; in the assay with Streptococcus sp. 80 it was 0.195. In addition, the mortality at 30 mg/kg with Pasteurella multocida was 100%.

These data come from patent publication US4401660A, “Ester derivatives of 5-O-mycaminosyl tylonolide and method of using same” (Eli Lilly and Company, priority 1981, dated 1983).
